Assay results published in US5326902A, “Oxyalkyne compounds, pharmaceutical compositions containing them and processes for preparing such compounds and compositions” (Gruenenthal GmbH, priority 1992, dated 1994).

Legend:
[1] = test system: Leukotriene-synthesis; assay: Inhibition of Leukotriene-synthesis Induced by FMLP/merthiolate of Human Polymorphonuclear Leukocytes; type: cell-based; conditions: Leukocyte, 5 minutes preincubation at 37° C., centrifuged and resuspended in HBSS before merthiolate (40 μM) and FMLP (10^-7 M), read-out: IC50-value of the reversible inhibitory action
Procedure: Human granulocytes were isolated by dextran sedimentation and a Percoll gradient method and suspended in HBSS (Hanks buffered saline solution) at 1×10^7 cells/ml. The cells were incubated in the presence of a compound according to the invention or a solvent (ethanol and/or dimethyl sulfoxide) at 37° C. for 2 minutes, then with merthiolate (sodium ethylmercurithiosalicylate; 40 μM) for 2 minutes and thereafter with FMLP (formyl-methionyl-leucylphenylalanine; 10^-7 M) for 15 minutes. After solid phase extraction, the metabolites of arachidonic acid 5-HETE, LTB4, 6-trans-LTB4 -isomers, 20-OH-LTB4 and 20-COOH-LTB4 were identified by RP-HPLC (M. Haurand and L. Flohe in Biochem. Pharmacol. 38, 2129 to 2137 (1989)).
To investigate the reversibility of the inhibitory action, the cells were incubated with a compound according to the invention or a solvent (ethanol and/or dimethyl sulfoxide) at 37° C. for 5 minutes, centrifuged at 300 × g for 5 minutes, and resuspended in 2 ml of HBSS. Then the cells were incubated with merthiolate (40 μM) at 37° C. for 2 minutes and thereafter with FMLP (10^-7 M) for 15 minutes. The IC50 -value of the reversible inhibitory action was 2 μmolar when the compound prepared according to Example 1 was used.

[2] = biological target: T1, 5-lipoxygenase (Rattus norvegicus, UniProt P12527); assay: Inhibition of Cell-free 5-lipoxygenase from RBL-1-cells (polarographic, 10,000 × g supernatant); type: biochemical; conditions: 10,000 × g supernatant of homogenized RBL-1-cells; arachidonic acid 75 μM; 35° C.; calculated IC50
T1 construct: endogenous in cells; host or cells: RBL-1 cells (rat basophilic leukemia)
T1 sequence (P12527 1-673): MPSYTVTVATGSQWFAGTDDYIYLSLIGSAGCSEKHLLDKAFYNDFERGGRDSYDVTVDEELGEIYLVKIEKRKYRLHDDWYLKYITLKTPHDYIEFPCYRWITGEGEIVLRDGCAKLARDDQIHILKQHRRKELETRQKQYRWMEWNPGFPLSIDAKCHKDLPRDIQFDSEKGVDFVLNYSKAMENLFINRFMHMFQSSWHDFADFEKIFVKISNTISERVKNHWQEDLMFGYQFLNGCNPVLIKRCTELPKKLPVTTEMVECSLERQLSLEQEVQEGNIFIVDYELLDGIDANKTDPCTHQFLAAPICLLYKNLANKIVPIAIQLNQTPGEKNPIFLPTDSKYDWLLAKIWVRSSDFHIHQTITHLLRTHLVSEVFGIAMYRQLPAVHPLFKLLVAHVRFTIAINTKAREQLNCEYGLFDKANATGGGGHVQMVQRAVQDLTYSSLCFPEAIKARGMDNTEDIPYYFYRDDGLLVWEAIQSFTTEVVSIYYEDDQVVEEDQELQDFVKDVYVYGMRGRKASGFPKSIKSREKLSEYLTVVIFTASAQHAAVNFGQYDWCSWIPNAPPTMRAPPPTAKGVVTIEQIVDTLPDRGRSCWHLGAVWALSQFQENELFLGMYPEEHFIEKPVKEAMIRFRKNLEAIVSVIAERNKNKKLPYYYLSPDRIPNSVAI
Procedure: Cell-free 5-lipoxygenase was polarographically measured from 10,000 × g supernatant of homogenized rat basophilic leucemia cells (M. Haurand & L. Flohe in Biol. Chem. Hoppe-Seyler 369, 133 to 142 (1988)). After preincubation of the 10,000 × g supernatant with arachidonic acid (75 μM), ATP (adenosine triphosphate; 4 mM), reduced glutathione (4 mM), and either a compound according to the invention (0.1 to 100 μM) or a solvent (ethanol and/or dimethyl sulfoxide) at 35° C. for 5 minutes, the lipoxygenase reaction was initiated by addition of calcium chloride (3 mM) and simultaneously recorded.
The activity of 5-lipoxygenase was determined from the difference in the pO2 -decrease before and after addition of calcium chloride. The evaluation included the initial rate of the reaction after the lag-phase as well as the duration of the lag-phase. In the concentration range of from 3 to 50 μM, the test substances induced lag-phases between 20 and 60 seconds.

IC50 [1]: 2 µM | IC50 [2]: 5 µM
SMILES: CC(=O)N(O)Cc1ccc(C(O)C#Cc2ccccc2)cc1 (racemic) [Example 1, N-Hydroxy-N-[4-[1-hydroxy-3-phenyl-prop-2-yn-1-yl]benzyl]acetamide]
